Reference: patent US8153773B2, “Synthesis and use of anti-reverse phosphorothioate analogs of the messenger RNA cap” (Board of Supervisors of Louisiana State University and …, priority 2007, dated 2012)

How the values were obtained:
HC11 cells = experiment: Translational efficiency of capped luciferase mRNA in HC11 cells; type: cell-based, mouse; conditions: Luc-A60 mRNA capped with the analog in HC11 cells, relative to m^7Gp3G-capped mRNA
Method: Two methods, electroporation and nucleoporation, were used to deliver RNA into cells. In case of electroporation, 5 μg of RNA were introduced into 10^7 HC11 cells in a total volume 400 μl of serum-reduced RPMI 1640 medium in a Gene pulser cuvette (4 mm gap) with a Bio-Rad Genepulser™ set at 0.22 kV and 960 μF. Following discharge, the cells were washed twice with PBS, centrifuged for 2 min 300×g at room temperature, resuspended in prewarmed complete medium, and placed at 37° C. Nucleoporation was performed with an Amaxa Nucleofector II (Amaxa Biosystems) in accordance with manufacture's recommendations. One microgram of RNA was introduced into 10^6 HC11 cells with Nucleofector Solution V and the set of recommended regimens (program T-024).
For measurement of translational efficiency, cells were divided into several Eppendorf tubes, placed in a water bath at 37° C., and shaken. For measurement of mRNA stability, cells were distributed into 35-mm cell culture dishes and placed at 37° C. in a 5% CO2 humidified atmosphere. Cells were harvested at various times and washed twice with PBS.
For cytoplasmic RNA extraction, 2×10^5 cells were lysed in 175 μl of lysis buffer (50 mM Tris-HCl, pH 8.0, 140 mM NaCl, 1.5 mM MgCl2, 0.5% (v/v) Igepal (Sigma), and 1 mM dithiothreitol). RNAs were further purified using the RNeasy mini kit. For protein extraction, 2×10^5 cells were lysed in 200 μl of Luciferase Cell Culture Lysis Reagent (Promega). Luciferase activity of cell extracts was measured according to the manufacturer's protocol (Promega).
We also determined the translational efficiency in cultured cells for luciferase mRNA capped with S-ARCAs. This involved two measurements conducted at various times following nucleoporation—luciferase activity measured by luminometry in cleared cell lysates, and Luc-A60 levels measured by real-time PCR. Luciferase activity was normalized by the amount of luciferase mRNA that had been delivered into cells. To determine the amount of RNA present in the cells at a time immediately after nucleoporation, i.e., before any decay had occurred, cells were harvested at various times between 2 to 8 h post-nucleoporation, and cytoplasmic RNA was extracted. The amount of luciferase mRNA was measured by real time PCR using primers that amplify sequences near the 5′-end. Luciferase mRNA remaining at each time point was plotted as log10 ([RNA]) versus time to determine t1/2. The curve was extrapolated to 0 h, and the amount of RNA delivered into the cells was calculated. We defined conditions under which the accumulation of luciferase was linear with time, after an initial lag period of ˜30 min for recruitment of mRNA to ribosomes, completing the first polypeptide chain, and release of luciferase into the cytosol.

murine eIF4E (28-217) = biological target: T1, murine eIF4E (28-217) (Mus musculus, UniProt P63073); experiment: Binding affinities for eIF4E by fluorescence quenching; set-up: Cap - eIF4E KAS: unit not given here; conditions: for ΔG°: binding free energy calculated from KAS; for ΔG° / KAS: murine eIF4E (28-217); for Cap - eIF4E KAS / KAS: equilibrium association constant; for Cap - eIF4E KAS: mouse eIF4E (amino acids 28-217), 20° C.; for KAS: fluorescence quenching; for affinity for eIF4E (KAS) relative to m2^7,2′-OGpppG: fold higher than the parent ARCA; for affinity for eIF4E (KAS) of D1 relative to D2 diastereomer: fold higher than the D2 member
T1 construct: (28-217) to phosphorothioate cap analogs, as determined
T1 sequence (P63073 28-217): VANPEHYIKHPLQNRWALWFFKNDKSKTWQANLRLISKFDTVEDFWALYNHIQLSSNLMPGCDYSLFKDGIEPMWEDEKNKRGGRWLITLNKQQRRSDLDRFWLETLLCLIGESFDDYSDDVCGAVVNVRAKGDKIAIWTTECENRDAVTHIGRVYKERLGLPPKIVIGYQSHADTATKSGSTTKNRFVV
Method: Binding affinities of S analogs for murine eIF4E were determined by fluorescence quenching. Fluorescence titration measurements were carried out on an LS-50B spectrofluorometer (Perkin Elmer Co.) in 50 mM HEPES/KOH (pH 7.2), 100 mM KCl, 0.5 mM EDTA, 1 mM DTT at 20.0±0.2° C. Aliquots of 1 μl increasing concentration of cap analogue solutions were added to 1.4 ml of […] solutions. Fluorescence intensities (excitation at 280 nm with 2.5 nm bandwidth and detection at 337 nm with 4 nm bandwidth and 290 nm cut-off filter) were corrected taking into account sample dilution and the inner filter effect. Equilibrium association constants (KAS) were determined by fitting the theoretical dependence of the fluorescence intensity on the total concentration of cap analogue to the experimental data points according to equation described previously (See A. Niedzwiecka et al., “Biophysical studies of eIF4E cap-binding protein: recognition of mRNA 5′ cap structure and synthetic fragments of eIF4G and 4E-BP1 proteins,” J. Mol. Biol., vol. 319, pp. 615-635 (2002)). The concentration of protein was fitted as a free parameter of equilibrium equation showing amount of “active” protein. The final KAS was calculated as a weighted average of three to ten independent titrations, with the weights taken as the reciprocals of the numerical standard deviations squared. Numerical nonlinear least-squares regression analysis was performed using ORGIN 6.0 (Microcal Software Inc., USA). The Gibbs free energy of binding was calculated from the KAS value according to the standard equation ΔG°=−RTlnKAS.

Compound: CO[C@@H]1[C@H](O)[C@@H](COP(=O)(O)OP(=O)([O-])OP(=O)(O)OC[C@H]2O[C@@H](n3cnc4c(=O)[nH]c(N)nc43)[C@H](O)[C@@H]2O)O[C@H]1n1c[n+](C)c2c(O)nc(N)nc21 [m2^7,2′-OGpppG, reference compound]
- Relative translational efficiency (HC11 cells): 2.1 ± 0.2
- ΔG° (murine eIF4E (28-217)): -9.43 kcal/mol
- Cap - eIF4E KAS (murine eIF4E (28-217)): 10.8 ± 0.3
- KAS (murine eIF4E (28-217)): 10.8 ± 0.3 µM⁻¹

Compound: m2^7,2′-OGpppsG (D1) [Compound 4a]
- Relative translational efficiency (HC11 cells): 2.5 ± 0.8
- ΔG° (murine eIF4E (28-217)): -9.76 kcal/mol
- Cap - eIF4E KAS (murine eIF4E (28-217)): 34.3 ± 1.3
- KAS (murine eIF4E (28-217)): 19.2 ± 0.8 µM⁻¹
- affinity for eIF4E (KAS) relative to m2^7,2′-OGpppG (murine eIF4E (28-217)): 3 fold

Compound: m2^7,2′-OGpppsG (D2) [Compound 4b]
- Relative translational efficiency (HC11 cells): 1.8 ± 0.4
- ΔG° (murine eIF4E (28-217)): -9.62 kcal/mol
- Cap - eIF4E KAS (murine eIF4E (28-217)): 12.9 ± 0.9
- KAS (murine eIF4E (28-217)): 15.0 ± 0.6 µM⁻¹

Compound: m2^7,2′-OGppspG (D1) [Compound 5a]
- Relative translational efficiency (HC11 cells; listed as m2^7,2′-OGppSpG (D1)): 2.8 ± 0.3
- Relative translational efficiency (HC11 cells; listed as m2^7,2′-OGppspG (D1)): 2.8
- ΔG° (murine eIF4E (28-217)): -10.23 ± 0.02 kcal/mol
- Cap - eIF4E KAS (murine eIF4E (28-217)): 42.1 ± 1.6
- KAS (murine eIF4E (28-217)): 43.1 ± 1.4 µM⁻¹
- affinity for eIF4E (KAS) of D1 relative to D2 diastereomer (murine eIF4E (28-217)): 2 fold

Compound: m2^7,2′-OGppspG (D2) [Compound 5b]
- Relative translational efficiency (HC11 cells; listed as m2^7,2′-OGppSpG (D2)): 5.1 ± 0.5
- Relative translational efficiency (HC11 cells; listed as m2^7,2′-OGppspG (D2)): 5.1
- ΔG° (murine eIF4E (28-217)): -9.77 kcal/mol
- Cap - eIF4E KAS (murine eIF4E (28-217)): 18.3 ± 3.4
- KAS (murine eIF4E (28-217)): 19.3 ± 2.2 µM⁻¹

Compound: m2^7,2′-OGpsppG (D1) [Compound 6a]
- Relative translational efficiency (HC11 cells): 2.0 ± 0.1
- ΔG° (murine eIF4E (28-217)): -10.12 kcal/mol
- Cap - eIF4E KAS (murine eIF4E (28-217)): 19.3 ± 1.8
- KAS (murine eIF4E (28-217)): 35.2 ± 1.1 µM⁻¹
- affinity for eIF4E (KAS) of D1 relative to D2 diastereomer (murine eIF4E (28-217)): 3 fold
- affinity for eIF4E (KAS) relative to m2^7,2′-OGpppG (murine eIF4E (28-217)): 3 fold

Compound: m2^7,2′-OGpsppG (D2) [Compound 6b]
- Relative translational efficiency (HC11 cells): 1.9 ± 0.1
- ΔG° (murine eIF4E (28-217)): -9.53 kcal/mol
- Cap - eIF4E KAS (murine eIF4E (28-217)): 15.4 ± 0.5
- KAS (murine eIF4E (28-217)): 12.9 ± 0.4 µM⁻¹
